# Test results from ChEMBL document CHEMBL3885861, “Open TG-GATES”.
# Organism: Rattus norvegicus
# Test: Open TG-GATES - Regimen: Single
# Format: toxicity, organism-based, Sprague-Dawley
# Design: regimen Single, gender Male, age 6 weeks
# Conditions: in vivo, po, 5 mg/kg, route gavage, dose level Middle; for APTT / Bas / Eos / Fbg / Hb / Ht / Lym / MCH / MCHC / MCV / Mono / Neu / PT / Plat / RBC / Ret / WBC: tissue Blood; for KIDNEY_L / KIDNEY_R / KIDNEY_TOTAL: tissue Kidney; for ALP / ALT / AST / CRE / Cl / DBIL / GLC / IP / K / LDH / Na / PL / RALB / TBIL / TC / TG / TP / gamma-GTP: tissue Plasma
smiles,measurement,setting,value
COc1cc2c(c(OC)c1OC)-c1ccc(OC)c(=O)cc1[C@@H](NC(C)=O)CC2 [COLCHICINE],APTT,3 h,16.4 s
same,Bas,3 h,0%
same,Eos,3 h,0.8%
same,Fbg,3 h,217.6 mg/dL
same,Hb,3 h,13.6 g/dL
same,Ht,3 h,41.3%
same,Lym,3 h,83.2%
same,MCH,3 h,21.9 pg
same,MCHC,3 h,32.8%
same,MCV,3 h,66.5 fL
same,Mono,3 h,7.2%
same,Neu,3 h,9.2%
same,PT,3 h,12.1 s
same,Plat,3 h,112.7 x10_4/uL
same,RBC,3 h,622 x10_4/ul
same,Ret,3 h,9.5%
same,WBC,3 h,111.5 x10_2/uL
same,KIDNEY_L,3 h,0.9 g
same,KIDNEY_R,3 h,1 g
same,KIDNEY_TOTAL,3 h,1.9 g
same,ALP,3 h,915.6 IU/L
same,ALT,3 h,52.6 IU/L
same,AST,3 h,119.2 IU/L
same,CRE,3 h,0.4 mg/dL
same,Cl,3 h,103.4 meq/L
same,DBIL,3 h,0.046 mg/dL
same,GLC,3 h,193.4 mg/dL
same,IP,3 h,9.1 mg/dL
same,K,3 h,4.5 meq/L
same,LDH,3 h,248 IU/L
same,Na,3 h,139 meq/L
same,PL,3 h,133.8 mg/dL
same,RALB,3 h,3.7 g/dL
same,TBIL,3 h,0.4 mg/dL
same,TC,3 h,79.6 mg/dL
same,TG,3 h,53 mg/dL
same,TP,3 h,5.5 g/dL
same,gamma-GTP,3 h,1 IU/L
same,TERMINAL_BW,6 h,218.4 g
same,APTT,6 h,17.4 s
same,Bas,6 h,0%
same,Eos,6 h,0.6%
same,Fbg,6 h,205.2 mg/dL
same,Hb,6 h,13.5 g/dL
same,Ht,6 h,41.4%
same,Lym,6 h,72.2%
same,MCH,6 h,21 pg
same,MCHC,6 h,32.6%
same,MCV,6 h,64.3 fL
same,Mono,6 h,10.8%
same,Neu,6 h,16.2%
same,PT,6 h,12.5 s
same,Plat,6 h,107.8 x10_4/uL
same,RBC,6 h,644.8 x10_4/ul
same,Ret,6 h,8.9%
same,WBC,6 h,105.2 x10_2/uL
same,KIDNEY_L,6 h,1 g
same,KIDNEY_R,6 h,1 g
same,KIDNEY_TOTAL,6 h,1.9 g
same,ALP,6 h,1038.4 IU/L
same,ALT,6 h,103.8 IU/L
same,AST,6 h,216.8 IU/L
same,CRE,6 h,0.5 mg/dL
same,Cl,6 h,103.2 meq/L
same,DBIL,6 h,0.048 mg/dL
same,GLC,6 h,180.2 mg/dL
same,IP,6 h,9.4 mg/dL
same,K,6 h,4.6 meq/L
same,LDH,6 h,340.6 IU/L
same,Na,6 h,139.6 meq/L
same,PL,6 h,118.4 mg/dL
same,RALB,6 h,3.7 g/dL
same,TBIL,6 h,0.4 mg/dL
same,TC,6 h,64 mg/dL
same,TG,6 h,35.2 mg/dL
same,TP,6 h,5.5 g/dL
same,gamma-GTP,6 h,1 IU/L
same,TERMINAL_BW,9 h,217.1 g
same,APTT,9 h,16.7 s
same,Bas,9 h,0%
same,Eos,9 h,1%
same,Fbg,9 h,207.8 mg/dL
same,Hb,9 h,13.6 g/dL
same,Ht,9 h,41.3%
same,Lym,9 h,67.4%
same,MCH,9 h,21.5 pg
same,MCHC,9 h,32.9%
same,MCV,9 h,65.4 fL
same,Mono,9 h,12%
same,Neu,9 h,20.4%
same,PT,9 h,12.6 s
same,Plat,9 h,108.3 x10_4/uL
same,RBC,9 h,631.6 x10_4/ul
same,Ret,9 h,9.1%
same,WBC,9 h,93.9 x10_2/uL
same,KIDNEY_L,9 h,1 g
same,KIDNEY_R,9 h,1 g
same,KIDNEY_TOTAL,9 h,2 g
same,ALP,9 h,1040.6 IU/L
same,ALT,9 h,165.4 IU/L
same,AST,9 h,290.6 IU/L
same,CRE,9 h,0.5 mg/dL
same,Cl,9 h,103.4 meq/L
same,DBIL,9 h,0.098 mg/dL
same,GLC,9 h,191.6 mg/dL
same,IP,9 h,8.8 mg/dL
same,K,9 h,5.1 meq/L
same,LDH,9 h,265.2 IU/L
same,Na,9 h,137 meq/L
same,PL,9 h,137.6 mg/dL
same,RALB,9 h,3.7 g/dL
same,TBIL,9 h,0.4 mg/dL
same,TC,9 h,79.2 mg/dL
same,TG,9 h,32 mg/dL
same,TP,9 h,5.4 g/dL
same,gamma-GTP,9 h,2.2 IU/L
same,TERMINAL_BW,24 h,226.2 g
same,APTT,24 h,16.3 s
same,Bas,24 h,0%
same,Eos,24 h,1%
same,Fbg,24 h,208.6 mg/dL
same,Hb,24 h,13.6 g/dL
same,Ht,24 h,41.5%
same,Lym,24 h,78.4%
same,MCH,24 h,21.6 pg
same,MCHC,24 h,32.8%
same,MCV,24 h,65.8 fL
same,Mono,24 h,9.8%
same,Neu,24 h,10.8%
same,PT,24 h,11.2 s
same,Plat,24 h,117.7 x10_4/uL
same,RBC,24 h,631.6 x10_4/ul
same,Ret,24 h,7.6%
same,WBC,24 h,120.4 x10_2/uL
same,KIDNEY_L,24 h,1 g
same,KIDNEY_R,24 h,1 g
same,KIDNEY_TOTAL,24 h,2 g
same,ALP,24 h,975.4 IU/L
same,ALT,24 h,65.4 IU/L
same,AST,24 h,110.6 IU/L
same,CRE,24 h,0.6 mg/dL
same,Cl,24 h,104 meq/L
same,DBIL,24 h,0.064 mg/dL
same,GLC,24 h,191.8 mg/dL
same,IP,24 h,5.3 mg/dL
same,K,24 h,4.7 meq/L
same,LDH,24 h,116 IU/L
same,Na,24 h,138 meq/L
same,PL,24 h,125.4 mg/dL
same,RALB,24 h,3.7 g/dL
same,TBIL,24 h,0.4 mg/dL
same,TC,24 h,71.2 mg/dL
same,TG,24 h,58 mg/dL
same,TP,24 h,5.6 g/dL
same,gamma-GTP,24 h,1.2 IU/L
